# How the values were obtained:
# [1] = tested on: 3T3-L1 adipocytes; experiment: 2-Deoxyglucose uptake in 3T3-L1 adipocytes; type: cell-based
# Description: 3T3-L1 adipocytes are fully differentiated (the 10th day after MDI stimulation) and seeded into 24-well plate. After incubation with compounds in serum-free medium containing 0.5% BSA for 8 hours, medium is changed to Krebs buffer containing […] insulin and incubated for 30 minutes. In the last 5 minutes, cells are incubated with 2-[^3H]-deoxy-D-glucose. The glucose uptake is stopped by ice-cold PBS, and the cells are then lysed with 0.1% Triton. Finally the radioactivity is calculated by a scintillation counter. Cytochalasin B is used to measure nonspecific uptake, and the value is subtracted from all the data. Radioactivity is normalized by total protein concentration that is measured by BCA kit.
# [2] = tested on: 3T3-L1 adipocytes; experiment: GLUT4 translocation by immunofluorescence in 3T3-L1 adipocytes; type: cell-based; conditions: Rut 20 µM, insulin 17 nM
# Description: For GLUT4 translocation assay in 3T3-L1 adipocytes, the cells are fully differentiated (the 10th day after MDI stimulation), and seeded onto 24-well plates. After cultured in serum-free medium for 8 h, cells are incubated with Rut for 2 h and insulin for 10 min, and then rinsed with PBS, fixed with 4% formaldehyde for 10 min, and permeated with 0.2% Triton X-100 in PBS for 10 min. Cells are subsequently washed with PBS and 3% bovine serum albumin for 20 min, and sequentially incubated with primary antibody (Abcam GLUT4 antibody) for 1 h and secondary antibody (Alexa Fluor 488 conjuncted anti-mouse antibody) for another 1 h. Finally, the glass-slips are washed with PBS for examination using OLYMPUS FV-1000 confocal microscope. All pictures are made in the same time experiment.
# [3] = molecular target: T1, PPARγ-LBD/SRC1_613–773 interaction (Homo sapiens, UniProt P37231); experiment: SPR SRC1 recruitment assay; type: binding; conditions: 1 µM PPARγ-LBD incubated with compound 1 hour
# T1 construct: pET15b-PPARγ-LBD202–477; His-tag (N); made in house; host or cells: E. coli BL21 (DE3)
# T1 sequence (P37231 230-505): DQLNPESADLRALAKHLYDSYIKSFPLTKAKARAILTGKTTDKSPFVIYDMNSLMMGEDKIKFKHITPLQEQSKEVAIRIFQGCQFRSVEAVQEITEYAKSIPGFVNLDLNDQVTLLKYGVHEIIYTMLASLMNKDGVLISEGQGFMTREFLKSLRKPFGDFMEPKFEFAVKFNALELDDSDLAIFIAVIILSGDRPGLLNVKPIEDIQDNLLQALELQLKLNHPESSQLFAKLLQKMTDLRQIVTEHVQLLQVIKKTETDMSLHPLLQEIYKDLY
# T1 sequence (Q15788 613-773 partner limits assumed): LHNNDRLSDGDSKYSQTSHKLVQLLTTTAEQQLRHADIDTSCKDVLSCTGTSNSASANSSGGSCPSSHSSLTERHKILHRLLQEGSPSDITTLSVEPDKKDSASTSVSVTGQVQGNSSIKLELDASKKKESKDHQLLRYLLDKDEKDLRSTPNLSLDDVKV
# Description: (§1) Binding affinities of Rut towards proteins are analyzed using SPR technology based Biacore 3000 instrument (GE Healthcare). In the assay, proteins are immobilized to CM5 chips using a standard amine-coupling procedure (Biacore manual). The proteins to be covalently bound to the chips are diluted in 10 mM sodium acetate buffer (pH4.5) to a final concentration of 0.10 mg/ml. Before experiments, baseline is equilibrated with a continuous flow of running buffer (10 mM HEPES, 150 mM NaCl, 3 mM EDTA, and 0.005% (v/v) surfactant P20, pH7.4) for 2 hours. Subsequently, Rut with a gradient of concentrations is injected to the channels at a flow rate of 20 µL/min for 60 seconds, followed by disassociation for 120 seconds. The 1∶1 Langmuir binding fitting model in BIAevaluation software version 3.1 (Biacore) is used to determine the equilibrium dissociation constants (K Ds) of compounds. […] Different concentrations of PPARγ-LBD or RXRα-LBD are injected to the channel at a flow rate of 20 µL/min for 60 s, followed by disassociation for 120 s.
# [4] = molecular target: T2, RXRα-LBD/SRC1_613–773 interaction (Homo sapiens, UniProt P19793); experiment: SPR SRC1 recruitment assay; type: binding; conditions: 1 µM RXRα-LBD incubated with compound 1 hour
# T2 construct: His-tag (N); made in house; host or cells: E. coli BL21 (DE3)
# T2 sequence (P19793 227-458 limits assumed): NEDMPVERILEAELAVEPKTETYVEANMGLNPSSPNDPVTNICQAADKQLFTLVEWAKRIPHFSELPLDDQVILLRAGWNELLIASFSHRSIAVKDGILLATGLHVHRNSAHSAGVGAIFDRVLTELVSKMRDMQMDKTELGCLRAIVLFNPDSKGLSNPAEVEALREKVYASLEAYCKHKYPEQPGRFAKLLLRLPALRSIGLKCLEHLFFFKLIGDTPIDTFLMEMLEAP
# T2 sequence (Q15788 613-773 partner limits assumed): as the sequence (Q15788 613-773 partner limits assumed) above
# Description: as §1
# [5] = molecular target: interaction of RXRα with SRC1 (Homo sapiens, UniProt P19793); experiment: Yeast two-hybrid assay; conditions: AH109 strain, 48 hours
# Sequence of interaction of RXRα with SRC1 (P19793 223-462 limits assumed): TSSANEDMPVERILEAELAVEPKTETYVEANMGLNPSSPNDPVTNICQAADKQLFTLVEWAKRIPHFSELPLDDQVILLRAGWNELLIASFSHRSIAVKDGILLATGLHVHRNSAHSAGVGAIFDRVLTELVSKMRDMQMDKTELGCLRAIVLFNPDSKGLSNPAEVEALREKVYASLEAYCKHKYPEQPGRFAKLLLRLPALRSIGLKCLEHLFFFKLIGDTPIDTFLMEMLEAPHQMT
# Sequence of interaction of RXRα with SRC1 (Q15788 613-773 partner limits assumed): as the sequence (Q15788 613-773 partner limits assumed) above
# [6] = tested on: C57/BL6 DIO male mice; experiment: Diet-induced obese (DIO) mice model: fasting plasma glucose, OGTT, ITT, tolerability; type: in vivo
# Description: All animals receive humane care, and the experimental procedures are performed according to the institutional ethical guidelines on animal care. C57/BL6 male mice are obtained from Shanghai SLAC Laboratory Animal Co. Ltd, and maintained under the temperature controlled at 25°C with a 12 h light-dark cycle. Eight-week-old male mice are fed regular chow or high fat diet (HFD, D12492i, from Research Diets Inc.) for 12 weeks. The DIO mice and normal lean mice are grouped randomly, and each group contains 7 mice. […] Individual body weight and fasting plasma glucose are measured weekly. Averaged daily food intake is measured twice a week. At the termination of the study, mice are dissected, and the weight of tissues (liver, kidney, spleen, heart, perirenal fat, and epididymis fat) is determined.
# Male mice treated with compounds for 8 weeks are used for oral glucose tolerance test. After 6 h fasting, plasma glucose levels are measured and glucose (2 g/kg) is loaded. Blood samples are taken from the tail vein at different time points (0, 30, 90, and 120 min). In insulin tolerance tests, after 6 h fasting, plasma glucose levels are measured and insulin (1 U/kg) is administered by IP injection. Blood samples are taken at indicated time points (0, 15, 30, 45, 60, 90, and 120 min). Blood glucose levels are measured by ACCU-CHEK Active blood sugar testmeter (Roche). Statistical evaluation is performed via two-way ANOVA. Significant difference at P<0.05: *, P<0.01: **.
# [7] = molecular target: T3, PPARγ:RXRα (Homo sapiens, UniProt P19793+P37231); experiment: Transient transfection luciferase assay in HEK293 cells (PPRE); type: cell-based; conditions: HEK293, 24 h
# T3 construct: expressed in transfected cells; host or cells: HEK293
# T3 sequence (P37231 whole entry): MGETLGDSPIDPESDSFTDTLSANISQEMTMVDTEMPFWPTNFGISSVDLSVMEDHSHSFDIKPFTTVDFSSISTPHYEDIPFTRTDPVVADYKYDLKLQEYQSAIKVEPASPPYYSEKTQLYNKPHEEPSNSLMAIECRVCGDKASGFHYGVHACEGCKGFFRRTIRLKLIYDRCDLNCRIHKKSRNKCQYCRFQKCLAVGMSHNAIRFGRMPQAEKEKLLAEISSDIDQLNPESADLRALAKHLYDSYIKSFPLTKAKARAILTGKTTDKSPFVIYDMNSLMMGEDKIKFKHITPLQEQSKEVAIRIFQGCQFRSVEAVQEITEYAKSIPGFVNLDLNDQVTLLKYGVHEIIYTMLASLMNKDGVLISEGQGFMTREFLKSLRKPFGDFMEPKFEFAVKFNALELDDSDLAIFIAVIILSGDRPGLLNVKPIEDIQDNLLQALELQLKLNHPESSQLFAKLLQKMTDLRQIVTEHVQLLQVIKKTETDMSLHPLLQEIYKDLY
# T3 sequence (P19793 whole entry): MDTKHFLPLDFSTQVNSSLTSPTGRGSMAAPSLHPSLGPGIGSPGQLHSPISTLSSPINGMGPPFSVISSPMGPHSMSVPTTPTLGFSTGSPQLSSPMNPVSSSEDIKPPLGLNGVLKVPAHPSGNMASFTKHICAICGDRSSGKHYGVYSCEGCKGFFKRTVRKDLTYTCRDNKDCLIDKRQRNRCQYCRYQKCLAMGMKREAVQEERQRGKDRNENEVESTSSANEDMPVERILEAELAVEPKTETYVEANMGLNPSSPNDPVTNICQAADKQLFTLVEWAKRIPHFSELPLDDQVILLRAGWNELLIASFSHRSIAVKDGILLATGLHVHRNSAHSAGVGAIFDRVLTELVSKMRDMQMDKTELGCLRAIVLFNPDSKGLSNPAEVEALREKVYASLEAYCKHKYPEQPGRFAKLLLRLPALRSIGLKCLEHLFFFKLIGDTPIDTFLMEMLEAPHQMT
# Description: (§2) HEK293 cells are transiently transfected by Lipo2000 respectively with RXRα, PPARγ, FXR, and LXRα plasmids plus pGL3-RXRE luciferase vector and renilla luciferase vector for 5 hours. Cells are then incubated with indicated concentrations of compounds for another 24 h and finally lysed. Luciferase activities are measured using Dual Luciferase Assay System kit. Rut dose-dependently activates (a) RXRα:RXRα and (b) PPARγ:RXRα activities. Rut has no effects on (c) FXR: RXRα and (d) LXRα:RXRα activities. Data are presented as means ± s.e.m (*P<0.05, **P<0.01) from three independent experiments.
# (§3) HEK293 cells are transfected with luciferase reporter plus Renilla luciferase vector and other plasmids if needed for 5 hours, and cells are then incubated with indicated concentrations of compounds for another 24 h. Finally cells are lysed and luciferase activities are measured using Dual Luciferase Assay System kit. The results are presented as the fold activation relative to untreated cells after normalization with Renilla luciferase values. Each experiment is repeated at least twice, with each sample analyzed in triplicates.
# [8] = molecular target: T4, RXRα:RXRα (Homo sapiens, UniProt P19793); experiment: Transient transfection luciferase assay in HEK293 cells (RXRE); type: cell-based; conditions: HEK293, 24 h
# T4 construct: expressed in transfected cells; host or cells: HEK293
# T4 sequence (P19793 whole entry): as above
# Description: as §2, §3
structure (smiles),measurement,setting,value
C=CC(C)(C)c1cc2cc3c(cc2oc1=O)O[C@H](C(C)(C)OC(C)=O)C3 [(+)-Rutamarin],glucose uptake without insulin stimulation,"[1]; Rut 20 µM, 8 hours",improves glucose uptake
same,insulin-induced glucose uptake,"[1]; insulin 17 nM, Rut 5–25 µM, C2 10 µM",dose-dependently enhances
same,GLUT4 translocation in fully differentiated 3T3-L1 adipocytes,[2],significantly induces
same,effect on interaction between PPARγ-LBD and SRC1,[3],cannot enhance
same,effect on interaction between RXRα-LBD and SRC1,[4],efficiently enhances
same,interaction of SRC1 with RXRα (α-galactosidase activity),[5],dose-dependently enhances
same,fasting plasma glucose level,"[6]; DIO mice, Rut 2 mg/kg IP, 2 weeks",efficiently improve
same,fasting plasma glucose vs control obese group,"[6]; DIO mice, Rut 10 mg/kg IP daily, 8 weeks",significantly lower
same,"insulin tolerance test, glucose elimination vs vehicle","[6]; DIO mice, Rut 10 mg/kg, insulin 1 U/kg IP",eliminate glucose at a faster rate
same,plasma glucose after glucose challenge (glucose tolerance test) vs vehicle,"[6]; DIO mice, Rut 10 mg/kg, oral glucose 2 g/kg",much lower
same,food consumption vs vehicle-treated mice,[6]; Rut 10 mg/kg IP,not significantly different
same,body weights,"[6]; Rut 10 mg/kg IP, same course in vehicle-treated mice",slightly decrease in the first four weeks
same,insulin tolerance test vs vehicle,"[6]; lean mice, Rut 10 mg/kg",no obvious difference
same,fasting plasma glucose vs vehicle,"[6]; lean mice, Rut 10 mg/kg IP daily, 8 weeks",no obvious difference
same,activity of PPAR-response element (PPRE),[7],dose-dependently enhance
same,activity of RXR-response element (RXRE),[8],dose-dependently enhance

# Reference: paper PMC3288053 (PLoS ONE, 2012)
